Source: publication PMC10144566, “Pharmacokinetic Profile Evaluation of Novel Combretastatin Derivative, LASSBio-1920, as a Promising Colorectal Anticancer Agent” (Pharmaceutics, 2023)
Read-outs that look alike come from different tables or passages of the source.

Key:
[1] = tested on: HPBMC, human peripheral blood mononuclear cells; assay: MTT cytotoxicity assay, HPBMC; type: cell-based; details: PBMC, 72 h incubation, read-out: IC50 (95% CI) HPBMC
Experimental: Heparinized blood was collected from healthy, non-smoking donors who had not taken any drugs during the 15 days prior to sampling. Human peripheral blood mononuclear cells (HPBMC) were isolated by a standard density-gradient centrifugation method over Ficoll-Hypaque® media (Merck-Sigma-Aldrich, St. Louis, MO, USA). HPBMC were washed and resuspended in RPMI-1640 medium supplemented with 20% fetal bovine serum, 2 mM glutamine, 100 U/mL penicillin, and 100 µg/mL streptomycin at 37 °C with 5% CO2. Phytohemagglutinin (3%) was added at the beginning of the culture.
The cytotoxicity of the compounds was determined using the MTT assay. Cells were seeded in 96-well plates as follows: 0.7 × 10^5 cells/well for adherent cancer cells, 0.3 × 10^5 cells/well for suspended cancer cells, and 0.2 × 10^5 cells/well for HPBMCs. The treatments were dissolved in DMSO and added to each well using an automated liquid handler for high-throughput screening (Biomek 3000—Beckman Coulter, Inc., Fullerton, CA, USA) and incubated for either 24, 48, and 72 h. The control group was treated with the vehicle. […] After incubation, the supernatant was decanted and replaced with fresh medium containing MTT (0.5 mg/mL). Three hours later, the MTT’s formazan product was dissolved in 150 µL of pure DMSO, and absorbance was measured at 595 nm (DTX 880 Multimode Detector, Beckman Coulter, Inc., Pasadena, CA, USA).
Data were presented as mean ± standard error of the mean (SEM) from three independent experiments performed in triplicate, calculated using Prism 8.0 (GraphPad/Intuitive Software for Science, San Diego, CA, USA). The IC50 of the compounds was obtained using a non-linear regression of the cytotoxicity curves.

EGFR-wt = target: T1, EGFR-wt (Homo sapiens, UniProt P00533); assay: Inhibition of EGFR, LANCE TR-FRET assay; type: biochemical; details: 1 and 10 µM (either concentration); data not shown
T1 construct: Eurofins
Experimental: Inhibition of EGFR assay: The inhibition of EGFR activity was determined using the LANCE®TR-FRET (time-resolved fluorescence energy transfer) test according to the protocol described by Weber et al. (1984). The reference compound (PD153035) was tested simultaneously with LASSBio-1920 (1 and 10 µM). The LASSBio-1920 concentrations were determined based on IC50 values and the compound’s aqueous solubility. The experiment was carried out in agreement with Eurofins®’s Standard Operating Procedure.

[2] = target: human CK-1δ protein kinase (Homo sapiens, UniProt P48730); assay: Inhibition of human CK-1δ protein kinase (Kinase-Glo); type: biochemical; details: data not shown, read-out: inhibitory activity against human CK-1δ protein kinase
Experimental: Inhibition of human CK-1δ protein kinase assay: Test compound (10 µL), CK-1δ enzyme (10 µL), and buffer solution (20 µL) were added to each well of a 96-well plate containing 0.1% casein as substrate and 4 µM ATP. The assay buffer solution constituents were 50 mM HEPES at pH 7.5, 0.01% Brij-35, […], 1 mM EDTA, and 0.01% NaN3. The final concentrations of DMSO were limited to 1%. After 60 min of incubation at 30 °C, the reaction was stopped by the addition of 40 µL of Kinase-Glo®. The luminescence was measured after 10 min using a Fluostar Optima multimode reader (BMG Labtechnologies GmbH, Offenburg, Germany). First, LASSBio-1920 was tested at concentrations of 10 µM, and 5 µM of SB415826, a potent CK-1δ enzyme inhibitor, was employed as a positive control.

[3] = tested on: PC-3, prostate adenocarcinoma; assay: MTT cytotoxicity assay, PC-3; details: Homo sapiens, 72 h, read-out: IC50 (95% CI) PC-3
Experimental: (§1) The cytotoxicity of the compounds was determined using the MTT assay [13]. Cells were seeded in 96-well plates as follows: 0.7 × 10^5 cells/well for adherent cancer cells, 0.3 × 10^5 cells/well for suspended cancer cells, and 0.2 × 10^5 cells/well for HPBMCs. […] The control group was treated with the vehicle. […] After incubation, the supernatant was decanted and replaced with fresh medium containing MTT (0.5 mg/mL).

[4] = tested on: PC-9, lung adenocarcinoma (overexpressed EGFR with L858R mutation); assay: MTT cytotoxicity assay, PC-9; details: for IC50: Homo sapiens
Experimental: as §1

[5] = tested on: H-1975, non-small cell lung adenocarcinoma; assay: MTT cytotoxicity assay, H-1975; details: Homo sapiens, NCI-H1975, 72 h, read-out: IC50 (95% CI) H-1975
Experimental: as §1

[6] = tested on: HCT-116 human colorectal cancer cells (colon carcinoma); assay: MTT cytotoxicity assay, HCT-116; details: for IC50: Homo sapiens
Experimental: as §1

[7] = tested on: human tumor cell lines (HCT-116, SF-295, PC-3, H-1975, PC-9, N-87); assay: MTT cytotoxicity assay, panel of human tumor cell lines; details: 72 h, read-out: IC50 values against all tumor cell lines
Experimental: as §1

[8] = IC50 for HPBMC/IC50 for the tumor cell line, 72 h

T1 sequence (P00533 25-1210): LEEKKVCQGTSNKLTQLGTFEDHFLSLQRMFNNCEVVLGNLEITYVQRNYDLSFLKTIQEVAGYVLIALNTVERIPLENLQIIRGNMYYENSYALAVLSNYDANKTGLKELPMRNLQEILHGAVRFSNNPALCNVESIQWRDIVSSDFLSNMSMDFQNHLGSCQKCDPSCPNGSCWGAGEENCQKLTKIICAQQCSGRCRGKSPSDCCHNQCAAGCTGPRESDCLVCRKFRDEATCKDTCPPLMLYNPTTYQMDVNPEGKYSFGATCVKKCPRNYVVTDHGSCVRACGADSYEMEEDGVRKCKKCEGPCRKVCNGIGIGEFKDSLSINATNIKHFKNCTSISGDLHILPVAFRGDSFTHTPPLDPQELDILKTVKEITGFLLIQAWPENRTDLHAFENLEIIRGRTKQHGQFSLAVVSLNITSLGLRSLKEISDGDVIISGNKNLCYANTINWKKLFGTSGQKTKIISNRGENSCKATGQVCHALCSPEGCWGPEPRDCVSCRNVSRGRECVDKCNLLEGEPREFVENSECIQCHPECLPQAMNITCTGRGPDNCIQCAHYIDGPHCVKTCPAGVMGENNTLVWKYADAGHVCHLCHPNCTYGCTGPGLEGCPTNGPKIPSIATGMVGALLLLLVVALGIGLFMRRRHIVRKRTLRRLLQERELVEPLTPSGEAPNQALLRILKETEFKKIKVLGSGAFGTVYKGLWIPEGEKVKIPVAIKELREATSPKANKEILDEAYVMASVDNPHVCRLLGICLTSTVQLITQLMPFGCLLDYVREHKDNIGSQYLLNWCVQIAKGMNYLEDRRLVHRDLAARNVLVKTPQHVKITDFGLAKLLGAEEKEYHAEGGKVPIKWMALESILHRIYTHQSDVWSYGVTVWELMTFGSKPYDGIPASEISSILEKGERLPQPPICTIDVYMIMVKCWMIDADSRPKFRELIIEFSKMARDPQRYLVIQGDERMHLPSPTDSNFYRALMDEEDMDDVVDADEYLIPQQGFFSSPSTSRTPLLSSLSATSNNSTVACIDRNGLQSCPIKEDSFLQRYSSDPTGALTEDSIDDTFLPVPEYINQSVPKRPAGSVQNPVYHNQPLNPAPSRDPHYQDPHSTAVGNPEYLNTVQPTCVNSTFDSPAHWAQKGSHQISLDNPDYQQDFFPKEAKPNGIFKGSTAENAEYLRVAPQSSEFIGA
Sequence of human CK-1δ protein kinase (P48730 whole entry): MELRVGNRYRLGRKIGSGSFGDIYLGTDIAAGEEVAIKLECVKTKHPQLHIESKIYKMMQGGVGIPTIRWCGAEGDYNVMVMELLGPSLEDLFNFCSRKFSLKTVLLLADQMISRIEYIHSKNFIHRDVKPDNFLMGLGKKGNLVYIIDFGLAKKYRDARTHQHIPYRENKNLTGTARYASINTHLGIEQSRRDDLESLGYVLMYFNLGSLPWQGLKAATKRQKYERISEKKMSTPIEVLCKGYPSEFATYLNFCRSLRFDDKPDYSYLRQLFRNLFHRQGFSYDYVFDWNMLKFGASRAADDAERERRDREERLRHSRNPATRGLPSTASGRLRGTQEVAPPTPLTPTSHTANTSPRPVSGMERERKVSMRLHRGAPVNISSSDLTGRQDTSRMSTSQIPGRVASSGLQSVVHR

Question: `COc1cc(C(=O)N/N=C/c2cc3ccccc3s2)cc(OC)c1OC` [LASSBio-1920, (E)-N′-(Benzo[b]thiophen-2-ylmethylene)-3,4,5-trimethoxybenzohydrazide] was tested. Which IC50 [1] did it give?
Answer: 140 nM

Question: And the “enzymatic inhibition of EGFR-wt” value (EGFR-wt)?
Answer: less than 20%

Question: And the inhibition at 10 µM [2]?
Answer: < 10%

Question: And the IC50 [3]?
Answer: 1680 nM

Question: What about the IC50 ([4]; 24 h, read-out: IC50 (95% CI) PC-9 24 h) of the same compound?
Answer: 78800 nM

Question: And the IC50 ([4]; 48 h, read-out: IC50 (95% CI) PC-9 48 h)?
Answer: 1010 nM

Question: What about the IC50 ([4]; 72 h, read-out: IC50 (95% CI) PC-9 72 h) of the same compound?
Answer: 70 nM

Question: And the “SI HPBMC/PC-9” value [4, 8]?
Answer: 2

Question: And the IC50 [5]?
Answer: 210 nM

Question: And the IC50 ([6]; HCT-116, 24 h, read-out: IC50 (95% CI) HCT-116 24 h)?
Answer: > 100000 nM

Question: And the IC50 ([6]; HCT-116, 48 h, read-out: IC50 (95% CI) HCT-116 48 h)?
Answer: 2700 nM

Question: And the IC50 ([6]; HCT-116, 72 h, read-out: IC50 (95% CI) HCT-116)?
Answer: 60 nM

Question: What about the IC50 ([6]; HCT-116, 72 h, read-out: IC50 (95% CI) HCT-116 72 h) of the same compound?
Answer: 60 nM

Question: And the “SI HPBMC/HCT-116” value [6, 8]?
Answer: 2.3

Question: And the IC50 [7]?
Answer: 60 to 1680 nM
